{
  "source": "ChEMBL document CHEMBL1201862",
  "about": "“PubChem BioAssay data set” (2004)",
  "assay_in_all_cases": "NCI anticancer screen, dose series, 48 h",
  "key": {"[1]": {"tested_on": "ACHN"}, "[2]": {"tested_on": "DLD-1"}, "[3]": {"tested_on": "DMS-114"}, "[4]": {"tested_on": "DMS-273"}, "[5]": {"tested_on": "HCT-116"}, "[6]": {"tested_on": "KM12"}, "[7]": {"tested_on": "LXFL 529"}, "[8]": {"tested_on": "NCI-H522"}, "[9]": {"tested_on": "OVCAR-5"}, "[10]": {"tested_on": "SF-295"}, "[11]": {"tested_on": "SF-539"}, "[12]": {"tested_on": "SK-MEL-2"}, "[13]": {"tested_on": "SK-MEL-5"}, "[14]": {"tested_on": "SNB-78"}},
  "note": "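Five concentrations, 48 hours, 96-well plates. Here, GI50 denotes the concentration required for 50% inhibition of growth.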 Calls of active or inactive are those of the source. Rule as the data show it: active = GI50 up to about 1.1 µM and inactive = higher.",
  "data": [
    {"smiles": "CC(=O)n1nnc2ccc([N+](=O)[O-])cc21", "values": [
      {"measurement": "GI50", "setting": "[1]", "result": "> 100 µM (inactive)"},
      {"measurement": "GI50", "setting": "[2]", "result": "> 100 µM (inactive)"},
      {"measurement": "GI50", "setting": "[3]", "result": "> 100 µM (inactive)"},
      {"measurement": "GI50", "setting": "[4]", "result": "> 100 µM (inactive)"},
      {"measurement": "GI50", "setting": "[5]", "result": "> 100 µM (inactive)"},
      {"measurement": "GI50", "setting": "[6]", "result": "> 100 µM (inactive)"},
      {"measurement": "GI50", "setting": "[7]", "result": "> 100 µM (inactive)"},
      {"measurement": "GI50", "setting": "[8]", "result": "> 100 µM (inactive)"},
      {"measurement": "GI50", "setting": "[9]", "result": "> 100 µM (inactive)"},
      {"measurement": "GI50", "setting": "[10]", "result": "> 100 µM (inactive)"},
      {"measurement": "GI50", "setting": "[11]", "result": "> 100 µM (inactive)"},
      {"measurement": "GI50", "setting": "[12]", "result": "> 100 µM (inactive)"},
      {"measurement": "GI50", "setting": "[13]", "result": "> 100 µM (inactive)"},
      {"measurement": "GI50", "setting": "[14]", "result": "> 100 µM (inactive)"}
    ]},
    {"smiles": "CC(=O)NC(CCCNC(=O)N(C)N=O)C(=O)NCc1ccccc1", "note": "(stereo not given)", "values": [
      {"measurement": "GI50", "setting": "[1]", "result": "> 100 µM (inactive)"},
      {"measurement": "GI50", "setting": "[2]", "result": "> 100 µM (inactive)"},
      {"measurement": "GI50", "setting": "[3]", "result": "> 100 µM (inactive)"},
      {"measurement": "GI50", "setting": "[4]", "result": "> 100 µM (inactive)"},
      {"measurement": "GI50", "setting": "[5]", "result": "> 100 µM (inactive)"},
      {"measurement": "GI50", "setting": "[6]", "result": "> 100 µM (inactive)"},
      {"measurement": "GI50", "setting": "[7]", "result": "> 100 µM (inactive)"},
      {"measurement": "GI50", "setting": "[8]", "result": "> 100 µM (inactive)"},
      {"measurement": "GI50", "setting": "[9]", "result": "> 100 µM (inactive)"},
      {"measurement": "GI50", "setting": "[10]", "result": "> 100 µM (inactive)"},
      {"measurement": "GI50", "setting": "[11]", "result": "> 100 µM (inactive)"},
      {"measurement": "GI50", "setting": "[12]", "result": "> 100 µM (inactive)"},
      {"measurement": "GI50", "setting": "[13]", "result": "> 100 µM (inactive)"},
      {"measurement": "GI50", "setting": "[14]", "result": "> 100 µM (inactive)"}
    ]},
    {"smiles": "COC(=O)C#CC(N)=O", "values": [
      {"measurement": "GI50", "setting": "[1]", "result": "> 100 µM (inactive)"},
      {"measurement": "GI50", "setting": "[2]", "result": "> 100 µM (inactive)"},
      {"measurement": "GI50", "setting": "[3]", "result": "> 100 µM (inactive)"},
      {"measurement": "GI50", "setting": "[4]", "result": "> 100 µM (inactive)"},
      {"measurement": "GI50", "setting": "[5]", "result": "98.2 µM (inactive)"},
      {"measurement": "GI50", "setting": "[6]", "result": "> 100 µM (inactive)"},
      {"measurement": "GI50", "setting": "[7]", "result": "> 100 µM (inactive)"},
      {"measurement": "GI50", "setting": "[8]", "result": "> 63.1 µM (inactive)"},
      {"measurement": "GI50", "setting": "[9]", "result": "> 100 µM (inactive)"},
      {"measurement": "GI50", "setting": "[10]", "result": "> 100 µM (inactive)"},
      {"measurement": "GI50", "setting": "[11]", "result": "> 100 µM (inactive)"},
      {"measurement": "GI50", "setting": "[12]", "result": "> 91.2 µM (inactive)"},
      {"measurement": "GI50", "setting": "[13]", "result": "> 100 µM (inactive)"},
      {"measurement": "GI50", "setting": "[14]", "result": "> 100 µM (inactive)"}
    ]},
    {"smiles": "COc1ccc2c(c1)c(=O)c1ccccc1n2/C=C/C(=O)O", "values": [
      {"measurement": "GI50", "setting": "[1]", "result": "> 100 µM (inactive)"},
      {"measurement": "GI50", "setting": "[2]", "result": "> 47 µM (inactive)"},
      {"measurement": "GI50", "setting": "[3]", "result": "> 83.6 µM (inactive)"},
      {"measurement": "GI50", "setting": "[4]", "result": "> 41.3 µM (inactive)"},
      {"measurement": "GI50", "setting": "[5]", "result": "> 100 µM (inactive)"},
      {"measurement": "GI50", "setting": "[6]", "result": "> 100 µM (inactive)"},
      {"measurement": "GI50", "setting": "[7]", "result": "> 100 µM (inactive)"},
      {"measurement": "GI50", "setting": "[8]", "result": "> 100 µM (inactive)"},
      {"measurement": "GI50", "setting": "[9]", "result": "> 100 µM (inactive)"},
      {"measurement": "GI50", "setting": "[10]", "result": "> 100 µM (inactive)"},
      {"measurement": "GI50", "setting": "[11]", "result": "> 100 µM (inactive)"},
      {"measurement": "GI50", "setting": "[12]", "result": "> 100 µM (inactive)"},
      {"measurement": "GI50", "setting": "[13]", "result": "> 100 µM (inactive)"},
      {"measurement": "GI50", "setting": "[14]", "result": "> 100 µM (inactive)"}
    ]},
    {"smiles": "O=C(Nc1nc2ncn(CCO)c2c(=O)[nH]1)c1ccccc1", "values": [
      {"measurement": "GI50", "setting": "[1]", "result": "> 100 µM (inactive)"},
      {"measurement": "GI50", "setting": "[2]", "result": "> 100 µM (inactive)"},
      {"measurement": "GI50", "setting": "[3]", "result": "> 100 µM (inactive)"},
      {"measurement": "GI50", "setting": "[4]", "result": "> 100 µM (inactive)"},
      {"measurement": "GI50", "setting": "[5]", "result": "> 100 µM (inactive)"},
      {"measurement": "GI50", "setting": "[6]", "result": "> 100 µM (inactive)"},
      {"measurement": "GI50", "setting": "[7]", "result": "> 100 µM (inactive)"},
      {"measurement": "GI50", "setting": "[8]", "result": "> 100 µM (inactive)"},
      {"measurement": "GI50", "setting": "[9]", "result": "> 100 µM (inactive)"},
      {"measurement": "GI50", "setting": "[10]", "result": "> 100 µM (inactive)"},
      {"measurement": "GI50", "setting": "[11]", "result": "> 100 µM (inactive)"},
      {"measurement": "GI50", "setting": "[12]", "result": "> 100 µM (inactive)"},
      {"measurement": "GI50", "setting": "[13]", "result": "> 100 µM (inactive)"},
      {"measurement": "GI50", "setting": "[14]", "result": "> 100 µM (inactive)"}
    ]},
    {"smiles": "C[C@]12CCC(=O)C=C1CC[C@@H]1C2CC[C@]2(C)NC(=O)C(C#N)CC12", "note": "(stereo not given in full)", "values": [
      {"measurement": "GI50", "setting": "[1]", "result": "> 100 µM (inactive)"},
      {"measurement": "GI50", "setting": "[2]", "result": "> 100 µM (inactive)"},
      {"measurement": "GI50", "setting": "[3]", "result": "> 100 µM (inactive)"},
      {"measurement": "GI50", "setting": "[4]", "result": "> 100 µM (inactive)"},
      {"measurement": "GI50", "setting": "[5]", "result": "> 100 µM (inactive)"},
      {"measurement": "GI50", "setting": "[6]", "result": "> 10 µM (inactive)"},
      {"measurement": "GI50", "setting": "[7]", "result": "> 100 µM (inactive)"},
      {"measurement": "GI50", "setting": "[9]", "result": "> 100 µM (inactive)"},
      {"measurement": "GI50", "setting": "[10]", "result": "> 100 µM (inactive)"},
      {"measurement": "GI50", "setting": "[11]", "result": "> 100 µM (inactive)"},
      {"measurement": "GI50", "setting": "[12]", "result": "> 100 µM (inactive)"},
      {"measurement": "GI50", "setting": "[13]", "result": "> 100 µM (inactive)"},
      {"measurement": "GI50", "setting": "[14]", "result": "> 100 µM (inactive)"}
    ]},
    {"smiles": "CC(C)(O)/C=C/C(=O)[C@](C)(O)[C@H]1[C@H](O)C[C@@]2(C)[C@@H]3CC=C4[C@@H](C[C@H](O)C(=O)C4(C)C)[C@]3(C)C(=O)C[C@]12C", "note": "[CUCURBITACIN D]", "values": [
      {"measurement": "GI50", "setting": "[2]", "result": "0.0863 µM (active)"},
      {"measurement": "GI50", "setting": "[3]", "result": "0.199 µM (active)"},
      {"measurement": "GI50", "setting": "[4]", "result": "0.034 µM (active)"},
      {"measurement": "GI50", "setting": "[5]", "result": "0.112 µM (active)"},
      {"measurement": "GI50", "setting": "[6]", "result": "0.624 µM (active)"},
      {"measurement": "GI50", "setting": "[7]", "result": "0.073 µM (active)"},
      {"measurement": "GI50", "setting": "[8]", "result": "0.128 µM (active)"},
      {"measurement": "GI50", "setting": "[9]", "result": "1.04 µM (active)"},
      {"measurement": "GI50", "setting": "[10]", "result": "0.344 µM (active)"},
      {"measurement": "GI50", "setting": "[11]", "result": "0.0826 µM (active)"},
      {"measurement": "GI50", "setting": "[12]", "result": "0.0543 µM (active)"},
      {"measurement": "GI50", "setting": "[14]", "result": "0.0867 µM (active)"}
    ]}
  ]
}
